From patent US20080031957A1, “Pulmonary delivery of 1alpha,25-dihydroxyvitamin D3 and co-administration of parathyroid hormone or calcitonin” (priority 2006, published 2008) come the findings set out here.

For data set [1], the system named is serum calcium levels. The data set can be described thus: Effect of aerosolized 1α,25-dihydroxyvitamin D3 on serum calcium levels. Type of data set: in vivo, Brown Norway rats. The following applies: Formulation A, intratracheal 200 μL doses on Day 0 and Day 2, blood 24 h after last dose. The text has this: Sprague Dawley and Brown Norway male rats aged 6-7 weeks were obtained from Harlan Sprague-Dawley (Madison, Wis.) and housed in shoebox cages. Animals were provided a purified rodent diet prepared in-house containing 0.47% calcium and 0.3% phosphorus, and water ad libitum. The diet was supplemented with 1.6 IU vitamin D3/g diet. […] Formulation A was an aqueous solution containing 30% propylene glycol and 5% ethanol at pH 7.0. Formulation B was also an aqueous solution further containing 0.4% TWEEN polysorbate 20 [1 mL of solution contains: 4 mg Tween Polysorbate 20, 1.5 mg sodium chloride, 10 mg sodium ascorbate, 7.6 mg sodium phosphate (dibasic), 1.8 mg sodium phosphate (monodibasic) and 1.1 mg disodium […]], pH 7.0. Effectiveness of Aerosol Delivery of Vitamin D to Pulmonary Tree. 1α,25-dihydroxyvitamin D3 effect on serum calcium levels in Brown Norway rats was determined. Delivery of 1α,25-dihydroxyvitamin D3 (i.e., in vivo activity) was measured to determine the effect of aerosolized 1α,25-dihydroxyvitamin D3 treatment on serum calcium levels. Formulation A containing 1α,25-dihydroxyvitamin D3 was intra-tracheally delivered in 200 μL doses on Day 0 (Day 0 was the first day of treatment) and Day 2. […] Calcium levels were determined by atomic absorption spectroscopy of the serum diluted 0.1% lanthum chloride using a Perkin Elmer Model 3110.

Data set [2] is described as follows: Tissue distribution of 1α,25-dihydroxyvitamin D3 after intratracheal (pulmonary) delivery. It counts as in vivo, Sprague Dawley rats. The text has this: Sprague Dawley and Brown Norway male rats aged 6-7 weeks were obtained from Harlan Sprague-Dawley (Madison, Wis.) and housed in shoebox cages. Animals were provided a purified rodent diet prepared in-house containing 0.47% calcium and 0.3% phosphorus, and water ad libitum. The diet was supplemented with 1.6 IU vitamin D3/g diet. […] Formulation A was an aqueous solution containing 30% propylene glycol and 5% ethanol at pH 7.0. Formulation B was also an aqueous solution further containing 0.4% TWEEN polysorbate 20 [1 mL of solution contains: 4 mg Tween Polysorbate 20, 1.5 mg sodium chloride, 10 mg sodium ascorbate, 7.6 mg sodium phosphate (dibasic), 1.8 mg sodium phosphate (monodibasic) and 1.1 mg disodium […]], pH 7.0. Intratracheal delivery of 1α,25-dihydroxyvitamin D3. 5 μCi of 1α,25-dihydroxyvitamin D3 was delivered intratracheally to anesthetized (isoflurane) Sprague Dawley rats by using the MicroSprayerTM Model 1C following the manufacturer's protocol (PennCentury, Philadelphia, Pa). The device included a stainless steel tube measuring 0.64 mm in diameter attached to a high-pressure syringe (Model FMJ-250, PennCentury). An atomizer at the very tip of the tube generated the aerosol plume. The MicroSprayerTM was inserted deep into the trachea allowing delivery of aerosolized compounds into the lungs. 1α,25-dihydroxyvitamin D3 was administered in either 100 μL (Formulation A and Formulation B) or 200 μL (Formulation A) dose volumes. As a quench control, a group of animals were dosed with either Formulation A or Formulation B. Tissue analysis. Using a duration of 4 hours and a duration of 10 minutes after administering the dose, the animals were anesthetized with isoflurane and blood was collected from the heart. The trachea, lungs and stomach were removed, dehydrated in alcohol and pulverized. Samples weighing 20-100 mg were placed in 1 mL Solvable (Packard BioScience B. V., The Netherlands) and incubated at 60° C. overnight. Next, 10 mL of Optima Gold (Perkin Elmer, Boston, Mass.) was added to the samples, and radioactivity was measured using a liquid scintillation analyzer (TRI-CARB 2100 TR, Packard). To determine the presence of 1α,25-dihydroxyvitamin D3 in the blood, 200-300 μL of serum in 10 mL Optima Gold was used for scintillation counting.

Setting [3] is: Formulation A, 100 μL dose, after 10 minutes.
Setting [4] is: Formulation B, 100 μL dose, after 10 minutes.

For `C=C1/C(=C\C=C2/CCC[C@]3(C)[C@@H]([C@H](C)CCCC(C)(C)O)CC[C@@H]23)C[C@@H](O)C[C@@H]1O` [1α,25-dihydroxyvitamin D3], the “increase of serum calcium levels” value in data set [1] (1 μg/kgBW) worked out at 2.8 mg/dL. Moreover, the “increase of serum calcium levels” value in data set [1] (10 μg/kgBW) came out at 4 mg/dL. Besides, in data set [2] (setting [3]), the “detected 1α,25-dihydroxyvitamin D3 found in the serum” value is 53%; the “detected 1α,25-dihydroxyvitamin D3 found in the stomach” value was approximately 1%; the “detected 1α,25-dihydroxyvitamin D3 found in the trachea and lungs” value turned out to be 46%. Moreover, in data set [2] (Formulation A, after 4 hours), the “detected 1α,25-dihydroxyvitamin D3 found in the serum” value is given as 60%; the “detected 1α,25-dihydroxyvitamin D3 found in the stomach” value is 36%; the “detected 1α,25-dihydroxyvitamin D3 found in the trachea and lungs” value was “Less than 5%”. In addition, in data set [2] (setting [4]), the “detected 1α,25-dihydroxyvitamin D3 found in the serum” value is reported as 51%; the “detected 1α,25-dihydroxyvitamin D3 found in the stomach” value is “less than 4%”; the “detected 1α,25-dihydroxyvitamin D3 found in the trachea and lungs” value is recorded as 33%. In data set [2] (Formulation B, after 4 hours), the “1α,25-dihydroxyvitamin D3 detected in serum (% of total)” value stood at 56% and the “1α,25-dihydroxyvitamin D3 detected in stomach (% of total)” value was 35%.
